Assay results as given in patent US7279502B2, “Polyamine analog conjugates and quinone conjugates as therapies for cancers and prostate diseases” (Cellgate, Inc., priority 1999, dated 2007).
Like-named read-outs stand apart in the source and are kept apart here.

Tests used:
[1] = system: human prostate adenocarcinoma cell line PC-3; test: MTT assay, quinones, PC-3; type: cell-based; settings: read-out: ID50 PC-3
Procedure: (§1) Cell Culture: The human lung adenocarcinoma cell line, A549, and human prostatic cancer cell line, DUPRO, were a gift from Dr. M. Eileen Dolan, University of Chicago, Department of Medicine. A549 was grown in Ham's F-12K medium (Fisher Scientific, Itasca, Ill.) supplemented with 10% fetal bovine serum and 2 mM L-glutamine. DUPRO was grown in RPMI-1640 supplemented with 10% fetal bovine serum. The human colon carcinoma cell line, HT29, and the human breast carcinoma cell line, MCF7, were obtained from the American Type Culture Collection, Rockville, Md. HT29 cells were grown in McCoy's 5A medium (Gibco, BRL, Gaithersburg, Md.) supplemented with 10% fetal bovine serum. MCF7 cells were grown in Richter's Improved Modified Eagle's medium supplemented with 10% fetal bovine serum and 2.2 g/L sodium bicarbonate. The human prostate adenocarcinoma cell lines, LNCAP, PC-3 and DU145, were gifts from Dr. George Wilding, University of Wisconsin Comprehensive Cancer Center and the Department of Medicine, and were grown in Dulbecco's Modified Eagle's medium supplemented with a 5% fetal bovine serum. The malignant glioma cell line, U251MG NCI was obtained from the brain tumor tissue bank at the University of California, San Francisco Department of Neurosurgery, and was grown in Dulbecco's Modified Eagle's medium supplemented wth 10% fetal bovine serum. DUPRO, A549 and MCF7 cells were grown in 100 units/mL penicillin and 100 μg/mL streptomycin. HT29 and U251MG NCI cells were grown in 50 μg/mL gentamycin. LNCAP, PC-3 and DU145 cells were maintained in 1% antibiotic antimycotic solution (Sigma, St. Louis, Mo.). All cell cultures were maintained at 37° C. in 5% CO2/95% humidified air.
(§2) MTT assay. Exponentially growing monolayer cells were plated in 96 well plates at a density of 500 cells/well and allowed to grow for 24 h. Serially diluted drug solutions were added such that the final drug concentrations in the treatment media were between 0 and 35 μM. Cells were incubated with drug at either 4 hr or 72 hr. After 4 hr and 72 hr treatment, drugs were removed, fresh media (without) drug (100 uL) was added and cells were incubated for 6 days. After six days, 25 μL of a Dulbecco's phosphate-buffered saline solution containing 5 mg/mL of MTT (Thiazolyl blue) (Sigma) was added to each well and incubated for 4 h at 37° C. Then 100 μL of lysis buffer (20% sodium dodecyl sulfate, 50% N,N-dimethylformamide and 0.8% acetic acid, pH 4.7) was added to each well and incubated for an additional 22 h. A microplate reader (E max, Molecular Devices, Sunnyvale, Calif.) set at 570 nm was used to determine the optical density. Results were plotted as a ratio of the optical density in drug treated wells to the optical density in wells treated with vehicle alone. Plotting and estimation of ID50 values were accomplished with manufacturer supplied software. The data is presented below in Tables 3, 4, 5 and 6.

[2] = system: human breast carcinoma cell line, MCF7; test: MTT assay, quinones, MCF7; type: cell-based; settings: Table 4, treatment time not given in cell, read-out: ID50 Breast MCF7
Procedure: as §1, §2

[3] = Table 3, treatment time not given in cell

| Structure (SMILES) | IC50 [1, 3] | IC50 [2] | IC50 ([1]; Table 5, non-quinone structure) |
| --- | --- | --- | --- |
| CN1CCN(c2ccc3nc(-c4ccc5nc(-c6ccc(O)cc6)[nH]c5c4)[nH]c3c2)CC1 [SL-11063] | – | – | > 31.2 µM |
| O=C1C=C(OCCCCCCOc2ccc(OC3OC(CO)C(O)C(O)C3O)cc2)c2ccccc2C1=O (stereo not shown) [SL-11066] | > 31.2 µM | – | – |
| CN(C)c1cccc(OC(=O)CCCCOC2=CC(=O)C(=O)c3ccccc32)c1 [SL-11074] | 4.6 µM | – | – |
| CCNC(=O)CCNC(=O)CCCNC(=O)CCNC(=O)CCCCOC1=CC(=O)C(=O)c2ccccc21 [SL-11085] | > 31.2 µM | – | – |
| CCCCN(CC1=CC(=O)C(=O)c2ccccc21)C(=O)C(F)(F)F [SL-11088] | > 31.2 µM | > 31.2 µM | – |

The remaining molecules from weak to strong by IC50 [1, 3], led by results:

| IC50 [1, 3] | IC50 [2] | Structure (SMILES) | IC50 ([1]; Table 5, non-quinone structure) |
| --- | --- | --- | --- |
| 4.3 µM | – | O=C1C=C(OCCCCCNc2c3ccccc3nc3ccccc23)c2ccccc2C1=O [SL-11059, Acridine-quinone] | – |
| 2.4 µM | 4 µM | CCCCN(CC1=CC(=O)C(=O)c2ccccc21)C(C)=O [SL-11087] | – |
| 2 µM | – | NCCCCCC(=O)OCCCCCCOC1=CC(=O)C(=O)c2ccccc21 [SL-11075] | – |
| 1.71 µM | – | N#Cc1ccc(OCCCCCCOC2=CC(=O)C(=O)c3ccccc32)cc1 [SL-11062] | – |
| 1.5 µM | – | O=C1C=C(OCCCCCCOc2ccccc2)c2ccccc2C1=O [SL-11068] | – |
| 1.4 µM | – | O=C1C=C(OCCCCCCOC2=CC(=O)c3ccccc3C2=O)c2ccccc2C1=O [SL-11065] | – |
